Test results reported in patent publication US20150245613A1 (priority 2012, published 2015).
Like-named read-outs stand apart in the source and are kept apart here.

Experiments:
[1] = system: wheat Fusarium head blight; assay type: in vivo, Fusarium graminearum; details: cut wheat ears, 5 days after inoculation
wheat brown rust = assay: Test Example 5: controlling effect on wheat brown rust, field test (cultivar NORIN No. 61), Colby; assay type: in vivo, Puccinia recondita; details: 20 days after spray
From the text: A (theoretical) preventive value obtained in a case where the chemical suspension is sprayed=A1+((100−A1)×A2)/100
where A1 and A2 represent (i) the preventive value obtained in a case where the compound I-1 is sprayed and (ii) the preventive value obtained in a case where fluxapyroxad is sprayed.
Wheat seeds (cultivar: NORIN No. 61) were sown in a field in autumn of one (1) year earlier than a year when chemicals were sprayed, and the chemicals were sprayed over wheat plants at the flowering stage of the wheat plants. […] Specifically, the wheat seeds were sown in two rows with 30 cm inter-row spacing in the field in the autumn. (i) Chemical suspensions each of which contained the compound I-1 and Fluxapyroxad, (ii) a chemical suspension containing the compound I-1 and (iii) chemical suspensions each of which contained Fluxapyroxad, were diluted with water so that each ingredient of the chemical suspensions was in a predetermined amount to be used. Each of the chemical suspensions was then sprayed over the wheat plants at the flowering stage in the year. After the spray of the chemical suspensions, a pot, in which diseased wheat plants with brown rust were planted, was put in each test plot between the two rows of the wheat plants so that the wheat plants were prompted to get infected with wheat brown rust. Each test was conducted in three test plots, each of which test plots is of 0.5 m×4 m (2 m^2). In 20 days after the spray of the chemical suspensions, the occurrence of wheat brown rust was investigated in 20 flag leaves which were selected at random from one of the three test plots. An index of the occurrence (index of disease severity of wheat brown rust) was then calculated. A theoretical preventive value (an expected preventive value) obtained in a case where the chemical suspension containing the compound I-1 and Fluxapyroxad is sprayed was calculated, by use of the above Colby's formula (see Test Example 1), on the basis of (i) a preventive value obtained in a case where only the compound I-1 is sprayed and (ii) a preventive value obtained in a case where only fluxapyroxad is sprayed.

[2] = system: wheat Fusarium head blight; assay type: in vivo, Fusarium graminearum; details: cut wheat ears, 5 days after inoculation; remark: listed apart in the source

C[C@]1(CCl)CC[C@@H](Cc2ccc(Cl)cc2)[C@]1(O)Cn1cncn1 (racemic) [Compound I-1, (1RS,2SR,5SR)-5-(4-chlorobenzyl)-2-chloromethyl-2-methyl-1-(1H-1,2,4-triazole-1-ylmethyl)cyclopentanol]
Actual preventive value ([1]; Compound I-1 5 g/ha, Fluxapyroxad 0 g/ha): 13
Actual preventive value ([1]; Compound I-1 10 g/ha, Fluxapyroxad 0 g/ha): 39
Actual preventive value ([1]; Compound I-1 20 g/ha, Fluxapyroxad 0 g/ha): 61
Actual preventive value (wheat brown rust; Compound I-1 7.5 g/ha, Fluxapyroxad 0 g/ha, from average disease occurrence area ratios of flag leaves): 42.6
Actual preventive value (wheat brown rust; Compound I-1 7.5 g/ha, Fluxapyroxad 0 g/ha, from disease occurrence ratios of flag leaves): 16.4

C[C@]1(CCl)CC[C@@H](Cc2ccc(F)cc2)[C@]1(O)Cn1cncn1 (racemic) [Compound I-2, (1RS,2SR,5SR)-2-chloromethyl-5-(4-fluorobenzyl)-2-methyl-1-(1H-1,2,4-triazole-1-ylmethy)cyclopentanol]
Actual preventive value ([2]; Compound I-2 5 g/ha, Fluxapyroxad 0 g/ha): 34
Actual preventive value ([2]; Compound I-2 10 g/ha, Fluxapyroxad 0 g/ha): 45
Actual preventive value ([2]; Compound I-2 15 g/ha, Fluxapyroxad 0 g/ha): 62
Actual preventive value ([2]; Compound I-2 20 g/ha, Fluxapyroxad 0 g/ha): 78

Cn1cc(C(=O)Nc2ccccc2-c2cc(F)c(F)c(F)c2)c(C(F)F)n1 [Fluxapyroxad, 3-(difluoromethyl)-1-methyl-N-(3′,4′,5′-trifluorobiphenyl-2-yl)pyrazole-4-carboxamido]
Actual preventive value ([1]; Compound I-1 0 g/ha, Fluxapyroxad 10 g/ha): 3
Actual preventive value ([1]; Compound I-1 0 g/ha, Fluxapyroxad 20 g/ha): 0
Actual preventive value ([1]; Compound I-1 0 g/ha, Fluxapyroxad 40 g/ha): 4
Actual preventive value ([2]; Compound I-2 0 g/ha, Fluxapyroxad 10 g/ha): 8
Actual preventive value ([2]; Compound I-2 0 g/ha, Fluxapyroxad 20 g/ha): 16
Actual preventive value ([2]; Compound I-2 0 g/ha, Fluxapyroxad 30 g/ha): 14
Actual preventive value ([2]; Compound I-2 0 g/ha, Fluxapyroxad 40 g/ha): 9
Actual preventive value (wheat brown rust; Compound I-1 0 g/ha, Fluxapyroxad 7.5 g/ha, from average disease occurrence area ratios of flag leaves): 29.3
Actual preventive value (wheat brown rust; Compound I-1 0 g/ha, Fluxapyroxad 7.5 g/ha, from disease occurrence ratios of flag leaves): 6.8
Actual preventive value (wheat brown rust; Compound I-1 0 g/ha, Fluxapyroxad 30 g/ha, from average disease occurrence area ratios of flag leaves): 80.6
Actual preventive value (wheat brown rust; Compound I-1 0 g/ha, Fluxapyroxad 30 g/ha, from disease occurrence ratios of flag leaves): 64.4
